What was measured:
[1] = Solubility of salts in saturated spray drying solutions (Table 2); assay type: physicochemical
Description: Other examples of the methods of the invention include formation of nano particles of other components. For example, compositions of solution to be spray dried for preparing nano particles of various calcium phosphate phases are set forth in Table 2. Because MCPM is highly soluble, the solution for the nano MCPM production can be prepared by dissolving an appropriate amount of MCPM or other sources of Ca (for example CaCO3) and P (for example H3PO4) in a solution of the desired concentration (Table 2). For the preparation of nano particles of other calcium phosphates, a volatile weak acid is used to facilitate solubilization of the calcium phosphate ions. […] In general, a minimum amount of the volatile weak acid, necessary to keep the calcium and phosphate ions in the solution, is used to facilitate the removal of the acid in the spray drying process.

[2] = cited from earlier work
[3] = Reaction of CaF2 with macro DCPD in water paste, XRD; assay type: physicochemical; settings: paste with water 1g/1 mL, 100% humidity, 37° C., 24 h
Procedure: In another test, mixtures containing a macro (median size 1.6 μm) DCPD and either the nano CaF2 or a macro CaF2 were mixed with water (1g/1 mL) and the pastes were left in 100% humidity at 37° C. for 24 h.

[4] = comparison value for crystalline CaF2; cited from earlier work
[5] = acetic acid, high: DCPD/DCPA 996, OCP 995, ACP/TCP 985, HA 998 mmol/L
[6] = acetic acid, low: DCPD/DCPA 0, OCP 0.04, ACP/TCP 0, HA 0.122 mmol/L
[7] = carbonic acid, high: DCPD/DCPA 1000 mol/L, OCP 1018, ACP/TCP 1152, HA 1004 mmol/L
[8] = carbonic acid, low: DCPD/DCPA 0, OCP 0.04, ACP/TCP 0, HA 0.164 mmol/L

[Ca] of saturated solution [1, 5] [mmol/L] | [P] of saturated solution [1, 5] [mmol/L] | pH of saturated solution [1, 5] | [Ca] of saturated solution [1, 6] [mmol/L] | [P] of saturated solution [1, 6] [mmol/L] | pH of saturated solution [1, 6] | [Ca] of saturated solution [1, 7] [mmol/L] | [P] of saturated solution [1, 7] [mmol/L] | pH of saturated solution [1, 7] | [Ca] of saturated solution [1, 8] [mmol/L] | [P] of saturated solution [1, 8] [mmol/L] | pH of saturated solution [1, 8] | consumption of CaF2 by reaction with DCPD (XRD) [3] | Compound | IAP(HA) ([2]; comparison value for crystalline HA) | pIAP(HA) ([2]; comparison value for macro scale HA) | Ksp [4]
132 | 79 | 3.9 | 0.1 | 0.06 | 6.8 | 14.2 | 8.54 | 4.6 | 0.1 | 0.06 | 6.8 | – | Hydroxyapatite [HA] | 1×10^−117 | 117 | –
– | – | – | – | – | – | – | – | – | – | – | – | no reduction | [Ca+2].[F-].[F-] [crystalline CaF2, Calcium fluoride] | – | – | 3.9×10^−11

Source: patent US7670579B2, “Nanostructured bioactive materials prepared by dual nozzle spray drying techniques” (American Dental Association Foundation, priority 2004, dated 2010)
